# Biological target: human IDO1 (Homo sapiens, UniProt P14902)
# Test: Assessment of human IDO-1 inhibitory activity in Hela cells (Interferon-gamma activated, Ehrlich reagent, absorbance at 490 nm)
# Format: cell-based
# Set-up: endogenous in cells; host or cells: HeLa cells stimulated with interferon-gamma
# Conditions: 18 hours
# Experimental: Exemplary compounds were tested for inhibition of IDO activity.
# HeLa cells were seeded at 20,000 cells per 30 µL per well with RPMI/phenol red free media containing 10% FBS in a 384-well tissue culture plate (black with clear bottoms). 50 nL of compound was added to cells and incubated at 37° C. for one hour. 20 μL of the recombinant human Interferon-gamma (R&D System, Cat. #285-IF, at final concentration of 10 ng/ml) or recombinant murine Interferon-gamma (PEPROTECH® Inc., Cat. #315-05, final concentration of 5 ng/ml) was added to activate IDO signaling. The cells were incubated for 18 hours in 37° C. incubator with 5% CO2.
# Compound treatment was stopped by adding 5 μl trichloroacetic acid to a final concentration of 3%. Subsequently, the cell plate was further incubated at 50° C. for 30 minute. An equal volume supernatant (20 μL) and 2% (w/v) Ehrlich reagent (4-dimethylaminobenzaldehyde) in glacial acetic acid were mixed in a new clear bottom 384-well plate. This plate was incubated at room temperature for 30 minutes. Absorbance at 490 nm was measured on Envision plate reader.
# Compound IC50 values were calculated using counts from unstimulated (no INF-gamma treatment) wells as 100% inhibition. INF-gamma treatment without compound treatment as 0% inhibition.
# Chain of human IDO1 (P14902 whole entry): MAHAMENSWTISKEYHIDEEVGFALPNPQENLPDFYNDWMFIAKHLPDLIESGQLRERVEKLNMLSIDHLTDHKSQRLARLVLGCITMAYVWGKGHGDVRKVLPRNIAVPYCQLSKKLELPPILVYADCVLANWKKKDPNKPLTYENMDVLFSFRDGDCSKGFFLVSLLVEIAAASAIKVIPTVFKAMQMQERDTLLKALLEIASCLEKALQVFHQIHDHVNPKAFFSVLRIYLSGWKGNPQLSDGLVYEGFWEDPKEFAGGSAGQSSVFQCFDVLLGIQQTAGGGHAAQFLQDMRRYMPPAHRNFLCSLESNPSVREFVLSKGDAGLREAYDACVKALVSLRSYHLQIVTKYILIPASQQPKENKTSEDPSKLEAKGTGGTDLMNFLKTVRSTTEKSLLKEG
row,Compound,IC50
1,"CCN(c1cc(F)c([C@@H](COC)CC(=O)O)cc1Nc1ccc(Cl)cc1)C1CCOCC1 (single isomer, unassigned) [Example 844, 3-(5-((4-Chlorophenyl)amino)-4-(ethyl(tetrahydro-2H-pyran-4-yl)amino)-2-fluorophenyl)-4-methoxybutanoic acid]",< 5 nM
2,"CCOc1ncc(Nc2cc(C(CC)CC(=O)O)ccc2N(CC)C2CCOC2)cn1 (single isomer, unassigned) [947 D2]",< 50 nM
3,"CCC(CC(=O)O)c1ccc(N(CC)C2CCN(Cc3ccccc3)CC2)c(Nc2ccc(C#N)cc2)c1 (single isomer, unassigned) [Example 943, 3-(4-((1-benzylpiperidin-4-yl)(ethyl)amino)-3-((4-cyanophenyl)amino)phenyl) pentanoic acid]",< 5 nM
4,"CCOc1ncc(Nc2cc(C(CC)CC(=O)O)ccc2N(CCOC)C2CCOCC2)cn1 (single isomer, unassigned) [Example 1263, 3-(3-((2-ethoxypyrimidin-5-yl)amino)-4-((2-methoxyethyl)(tetrahydro-2H-pyran-4-yl)amino)phenyl)pentanoic acid]",< 50 nM
5,"COCCN(c1ccc(C(COC)CC(=O)O)cc1NC(=O)Nc1ccc(C)cc1)C1CCOCC1 (single isomer, unassigned) [Example 261 Enantiomer 2, 4-Methoxy-3-(4-((2-methoxyethyl)(tetrahydro-2H-pyran-4-yl)amino)-3-(3-(p-tolyl)ureido)phenyl)butanoic acid]",> 50 nM
6,"CCOc1ncc(Nc2cc(C(CC(=O)O)C3CC3)ccc2N2C[C@@H](C)O[C@@H](C)C2)cn1 (stereo partly drawn) [Example 250, 3-cyclopropyl-3-(4-((2R,6S)-2,6-dimethylmorpholino)-3-((2-ethoxypyrimidin-5-yl)amino)phenyl) propanoic acid]",> 50 nM
7,"COCC(CC(=O)O)c1ccc(N(C)C2CCOCC2)c(Nc2ccc(C#N)cc2)c1 (single isomer, unassigned) [Example 880, 3-(3-((4-Cyanophenyl)amino)-4-(methyl(tetrahydro-2H-pyran-4-yl)amino)phenyl)-4-methoxybutanoic acid]",< 50 nM
8,"CCN(c1ccc([C@@H](COC)CC(=O)O)cc1NC(=O)Nc1ccc(C#N)cc1)C1CCOCC1 [Example 422 E1, (S)-3-(3-(3-(4-Cyanophenyl)ureido)-4-(ethyl(tetrahydro-2H-pyran-4-yl)amino)phenyl)-4-methoxybutanoic acid]",> 50 nM
9,"CCOc1ncc(Nc2cc(C(CC)CC(=O)O)ccc2N(CC)C2CCOC2)cn1 (single isomer, unassigned) [Example 945 D2, 3-(3-((2-Ethoxypyrimidin-5-yl)amino)-4-(ethyl (tetrahydrofuran-3-yl)amino)phenyl)pentanoic acid]",< 50 nM
10,"CCC(CC(=O)O)c1ccc(N(CCOC)C2CCOCC2)c(NC(=O)Nc2ccc(Cl)cc2F)c1 (single isomer, unassigned) [Example 1266, 3-(3-(3-(4-chloro-2-fluorophenyl)ureido)-4-((2-methoxyethyl) (tetrahydro-2H-pyran-4-yl)amino)phenyl)pentanoic acid]",< 50 nM
11,"CC[C@H](CC(=O)O)c1ccc(N(CC)C2CCOCC2)c(Nc2ccc(C#N)cn2)c1 (single isomer, unassigned) [Example 504]",< 5 nM
12,"CCOc1ncc(Nc2cc(C(CC(=O)O)C3CC3)ccc2N2C[C@@H](C)O[C@@H](C)C2)cn1 (single isomer, unassigned) [Example 249]",> 50 nM
13,"CCc1ccc(Nc2cc(C(COC)CC(=O)O)cc(F)c2N(CC(C)C)CC(C)C)cc1 (single isomer, unassigned) [Example 926, 3-(4-(diisobutylamino)-3-((4-ethylphenyl)amino)-5-fluorophenyl)-4-methoxybutanoic acid.]",< 50 nM
14,"CCN(c1ccc(C(COC)CC(=O)O)cc1Nc1ccc(C#N)cc1)C1CCS(=O)(=O)CC1 (single isomer, unassigned) [Example 169, 3-(3-((4-cyanophenyl)amino)-4-((1,1-dioxidotetrahydro-2H-thiopyran-4-yl)(ethyl)amino)phenyl)-4-methoxybutanoic acid]",> 50 nM
15,"(S)-3-(4-((1,1-dioxidotetrahydro-2H-thiopyran-4-yl)(ethyl)amino)-3-((2-ethoxypyrimidin-5-yl)amino)phenyl)-4-isopropoxybutanoic acid [Example 328]",> 50 nM
16,"CCC1COCCN1c1ccc([C@H](COC)CC(=O)O)cc1Nc1ccc(C#N)cn1 (single isomer, unassigned) [Example 1305]",> 50 nM
17,"CCC1COCCN1c1ccc([C@H](COC)CC(=O)O)cc1Nc1ccc(Cl)cc1 (single isomer, unassigned) [Example 1308]",< 50 nM
18,"CCC(CC(=O)O)c1ccc(N2CCC(C)CC2)c(Nc2ccc(C#N)cc2)c1 (single isomer, unassigned) [Example 41 Enantiomer 2, 3-(3-((4-Cyanophenyl)amino)-4-(4-methylpiperidin-1-yl)phenyl)pentanoic acid]",< 50 nM
19,"CCC(CC(=O)O)c1ccc(N(CC)C2CCOC2)c(NC(=O)Nc2ccc(Cl)cc2F)c1 (single isomer, unassigned) [948 D1]",< 50 nM
20,"COCC(CC(=O)OC)c1ccc(N(CC(F)F)C2CCOCC2)c(Nc2ccc(Cl)cc2)c1 (centres unmarked) [Example 320, methyl 3-(3-((4-chloro-phenyl)amino)-4-((2,2-difluoroethyl) (tetrahydro-2H-pyran-4-yl)amino)phenyl)-4-methoxy-butanoate]",> 50 nM
21,"CCN(c1c(F)cc(C(COC)CC(=O)O)cc1NC(=O)Nc1ccc(Cl)cc1F)C1CCOCC1 (single isomer, unassigned) [Example 917, 3-(3-(3-(4-Chloro-2-fluorophenyl)ureido)-4-(ethyl(tetrahydro-2H-pyran-4-yl)amino)-5-fluorophenyl)-4-methoxybutanoic acid]",> 50 nM
22,"C[C@@H]1CN(c2ccc(C(CC(=O)O)C3CC3)cc2Nc2ccc(Cl)cc2)C[C@H](C)O1 (single isomer, unassigned) [Example 248]",< 50 nM

# Further lines, results first:
row,IC50,Compound
1,< 5 nM,"CC[C@@H](CC(=O)O)c1ccc(N(CC)C2CCOCC2)c(Nc2ccc(Cl)cn2)c1 (single isomer, unassigned) [Example 460]"
2,< 5 nM,"CCC(CC(=O)O)c1ccc(N(CCOC)C2CCOCC2)c(Nc2ccc(C#N)cc2)c1 (single isomer, unassigned) [Example 1261, 3-(3-((4-cyanophenyl)amino)-4-((2-methoxyethyl)(tetrahydro-2H-pyran-4-yl)amino)phenyl)pentanoic acid]"
3,< 5 nM,"CCC(CC(=O)O)c1ccc(N(CC(F)F)C2CCOCC2)c(Nc2ccc(Cl)cc2)c1 (single isomer, unassigned) [Example 318 Enantiomer 2, 3-(3-((4-Chlorophenyl)amino)-4-((2,2-difluoroethyl)(tetrahydro-2H-pyran-4-yl)amino)phenyl)pentanoic acid]"
4,< 5 nM,"CCN(c1ccc(C(CC(=O)O)C2CC2)cc1Nc1ccc(F)cc1)C1CCS(=O)(=O)CC1 (single isomer, unassigned) [Example 347, 3-cyclopropyl-3-(4-((1,1-dioxidotetrahydro-2H-thiopyran-4-yl)(ethyl)amino)-3-((4-fluorophenyl)amino)phenyl)propanoic acid]"
5,< 5 nM,"CCOc1ncc(Nc2cc(C(CC)CC(=O)O)ccc2N(CC)C2CCCOC2)cn1 (single isomer, unassigned) [Example 66, 3-(3-((2-ethoxypyrimidin-5-yl)amino)-4-(ethyl(tetrahydro-2H-pyran-3-yl)amino)phenyl)pentanoic acid]"
6,< 5 nM,"CCN(c1ccc([C@H](COC)CC(=O)O)cc1Nc1cccc(OC(F)(F)C(F)F)c1)C1CCOCC1 [Example 398, (R)-3-(4-(ethyl(tetrahydro-2H-pyran-4-yl)amino)-3-((3-(1,1,2,2-tetrafluoroethoxy)phenyl)amino)phenyl)-4-methoxybutanoic acid]"
7,< 5 nM,"CCOc1ncc(Nc2cc(C(CC)CC(=O)O)c(F)cc2N(CC)C2CCOCC2)cn1 (single isomer, unassigned) [Example 865, 3-(5-((2-ethoxypyrimidin-5-yl)amino)-4-(ethyl (tetrahydro-2H-pyran-4-yl)amino)-2-fluorophenyl) pentanoic acid]"
8,< 5 nM,"CCC(CC(=O)O)c1cc(Nc2cnc(OCC3CC3)nc2)c(N(CC)C2CCOCC2)cc1F (single isomer, unassigned) [Example 863, 3-(5-((2-(cyclopropylmethoxy)pyrimidin-5-yl)amino)-4-(ethyl(tetrahydro-2H-pyran-4-yl)amino)-2-fluorophenyl) pentanoic acid]"
9,< 5 nM,3-(3-((4-cyanophenyl)amino)-4-(ethyl (tetrahydro-2H-pyran-4-yl)amino) phenyl)-3-methylpentanoic acid [Example 27]
10,< 5 nM,"CCN(c1ccc([C@@H](COC)CC(=O)O)cc1Nc1cccc(OC(F)(F)C(F)F)c1)C1CCOCC1 [Example 361, (S)-3-(4-(ethyl(tetrahydro-2H-pyran-4-yl)amino)-3-((3-(1,1,2,2-tetrafluoroethoxy)phenyl)amino)phenyl)-4-methoxybutanoic acid]"

# Reference: patent US10399932B2, “Inhibitors of indoleamine-2,3-dioxygenase for the treatment of cancer” (BRISTOL-MYERS SQUIBB COMPANY, priority 2015, dated 2019)
